Data set [1] can be described thus: Metabolite identification in rat plasma, urine, feces and bile. It is filed as in vivo, SD rats. On the procedure:
The plasma samples were acquired from SD rats (n=6, 3 female and 3 male) and beagle dogs (n=6, 3 female and 3 male) after administration of 12 mg/kg and 8 mg/kg of BPI-460372, respectively. The rat urine, feces, and bile samples were acquired in SD rats after administration of 6 mg/kg of BPI-460372.
Equal volume from each rat was pooled together to get 1 male and 1 female 0-24 h plasma samples. An equal percentage by volume of individual urine sample (0-8, 8-24, and 24-48 h) from 3 female and 3 male rats was pooled by time interval across rats, respectively, resulting in two pooled urine samples (1 male and 1 female). An equal percentage by weight of individual feces samples (0-8, 8-24, and 24-48 h) was pooled by time interval across female and male rats, resulting in two pooled fecal samples. An equal percentage by volume of individual bile samples (0-4, 4-8, 8-24, and 24-48 h) was pooled by time interval across female and male rats, resulting in two pooled bile samples. […] Equal volumes from 3 female and 3 male rats were pooled together to get two 0-48 h plasma samples. For blank samples of plasma, urine, and bile, equal volume was pooled across subjects. For a blank sample of feces, equal weight was pooled across rats.
The pooled plasma, feces, and bile samples were extracted by adding 3-fold volume of acetonitrile, and the mixture was vortexed (1 min) and sonicated (1 min) before centrifugation (7220 g, 5 min). The pooled urine samples were centrifuged (7220 g, 5 min). Then the supernatant was transferred into a clean tube and evaporated to dryness under the nitrogen stream. The residues were redissolved with an appropriate volume of acetonitrile/water (20: 80, v: v). After centrifugation, the redissolved solution was transferred into an HPLC vial for UHPLC-Orbitrap-HRMS (15000 g, 10 min, 4°C).

Data set [2] in a line: in vitro. Particulars: hepatocytes. Here is the method:
(§1) After mixing, 20 μL of cell suspension was serially transferred into 200 μL of cold acetonitrile containing IS at the time points of 0, 5, 15, 30, 60, and 120 min, respectively.
(§2) The metabolic stability was assessed by measuring the depletion of substrate. The half-life (t1/2), intrinsic clearance (CLint, in virto, µL·min^-1·million cells^-1), whole liver intrinsic clearance (CLint, in vivo, mL·min-1·kg^-1), and in vivo hepatic clearance (CLH, mL·min-1·kg^-1) were calculated following a reported method. In the calculation of CLH, the fraction drug unbound (Fub) was set as 1. The hepatic blood flow, liver weight, and hepatocellularity of five species were used for the calculation of CLint, in vivo [13, 14]. The hepatic extraction ratio (Eh) means the ratio of CLH to hepatic blood flow.

Data set [3] deals with dog hepatocytes. Kind of data set: in vitro. Here is the method: as §1, §2
In data set [4] the test system is human hepatocytes. Kind of data set: in vitro. Here is the method: as §1, §2
Data set [5] deals with monkey hepatocytes. Kind of data set: in vitro. Here is the method:
as §1, §2

Data set [6] has as its system mouse hepatocytes. Kind of data set: in vitro. Here is the method: as §1, §2
Data set [7] relates to rat hepatocytes. The experiment in a line: in vitro. On the procedure: as §1, §2
The test system of data set [8] is monkey hepatocytes. The experiment in a line: Metabolism and metabolite formation in hepatocytes. As to conditions: cynomolgus monkey hepatocytes, 10 µM BPI-460372, 4 h incubation. It is filed as in vitro ADME, cynomolgus monkey. The source says: (§3) All the samples were duplicates.
Data set [9] concerns dog hepatocytes. Kind of data set: Metabolism and metabolite formation in hepatocytes. It is filed as in vitro ADME, beagle dog. As to conditions: beagle dog hepatocytes, 10 µM BPI-460372, 4 h incubation.
Description: as §3

The subject of data set [10] is rat hepatocytes. The experiment in a line: Metabolism and metabolite formation in hepatocytes. It is filed as in vitro ADME, SD rat. As to conditions: SD rat hepatocytes, 10 µM BPI-460372, 4 h incubation.
Description: as §3

The subject of data set [11] is mouse hepatocytes. The experiment in a line: Metabolism and metabolite formation in hepatocytes. As to conditions: ICR mouse hepatocytes, 10 µM BPI-460372, 4 h incubation. Type of data set: in vitro ADME, ICR mouse.
Description: as §3

In data set [12] the test system is human hepatocytes. The experiment in a line: Metabolism and metabolite formation in hepatocytes. As to conditions: human hepatocytes, 10 µM BPI-460372, 4 h incubation.
Description: 10 µM BPI-460372 was incubated in five species (human, cynomolgus monkey, beagle dog, SD rat, and ICR mouse) hepatocytes (1 × 10^6 cells·min^-1) at 37 °C for 4 h. 7-EC, as positive control, was incubated for 0 h and 4 h. For blank control, hepatocytes were inactivated by adding ice-cold acetonitrile, and then the BPI-460372 solution was added. All the samples were duplicates. Incubations were stopped using the same volume of cold acetonitrile. The tube was vortexed, and the duplicate samples were combined. Metabolite profiling and identification of BPI-460372 were conducted by using UHPLC-Orbitrap-HRMS. The samples of 7-EC were analyzed by LC-MS/MS and then semi-quantified using the peak area ratio of analyte versus IS.
For hepatocyte metabolite identification, the different metabolites of BPI-460372 were detected using an ACQUITY UPLC HSS T3 column (1.8 µm, 100 mm × 2.1 mm) and ACQUITY UPLC BEH C18 column (1.7 µm, 100 mm × 2.1 mm) for rat and dog metabolite identification. The mobile phase contained a mixture of 0.1% formic acid in water (A) and 0.1% formic acid in acetonitrile (B). The gradient elution program was as follows: 0.0-1.0 min, 5% B; 1.0-7.0 min, 5%-30% B; 7.0-12.0 min, 30%-80% B; 12.0-16.0 min, 80%-95% B; 16.0-18.0 min, 95% B; 18.0-18.1 min, 95%-5% B. Then, 5% B from 18.1 to 20.0 min was maintained for equilibration. The flow rate was set to 0.5 mL/min, and the column temperature was kept at 40°C. Eluted fractions were monitored by a UV detector at 314 nm.
Setting [13] is: oral 6 mg/kg BPI-460372, average of male and female pooled samples.

SMILES strings stand for the structures.

`NC(CSCC(O)C(=O)N1CC(n2c(=O)n(-c3ccc(C(F)(F)F)cc3)c3cncnc32)C1)C(=O)O` (stereo not drawn) [M526]: the “Relative abundance of MS peak areas, Rat Bile 0-48 h” value (shortened to “Relative abundance … Rat Bile 0-48 h”) in data set [1] (setting [13]) is reported as 1.52%.
Turning to `O=c1ccc2ccc(O)cc2o1` [7-hydroxycoumarin], the half-life – broadly, how long it takes for the measured level to halve – at 1 µM in data set [2] (ICR, mouse) was 49.3 min; in data set [2] (SD, rat), 22.5 min; in [2] (beagle, dog), 29.8 min; in data set [2] (human) it was 20.4 min; in data set [2] (monkey), 17.8 min. Further, the CLH in data set [3] (beagle, dog, 1 µM) was 25.9 mL/min/kg; in [4] (human, 1 µM), 17.7 mL/min/kg; in [5] (cynomolgus monkey, 1 µM), 33.5 mL/min/kg; in data set [6] (ICR, mouse, 1 µM), 58.5 mL/min/kg; in [7] (SD, rat, 1 µM), 39.9 mL/min/kg. For the same compound, the Eh worked out at 0.838 in data set [3] (beagle, dog, 1 µM); 0.856 in data set [4] (human, 1 µM); 0.762 in data set [5] (cynomolgus monkey, 1 µM); 0.650 in data set [6] (ICR, mouse, 1 µM); 0.723 in [7] (SD, rat, 1 µM). Also, the “CLint, in virto” value in data set [3] (dog, hepatocytes) is on record as 23.3 µL·min^-1·Million cells^-1; in data set [4] (human, hepatocytes), 33.9 µL·min^-1·Million cells^-1; in [5] (monkey, hepatocytes), 39.0 µL·min^-1·Million cells^-1; in data set [6] (mouse, hepatocytes), 14.1 µL·min^-1·Million cells^-1; in data set [7] (rat, hepatocytes), 30.8 µL·min^-1·Million cells^-1. In addition, the “CLint, in vivo” value in data set [3] (hepatocytes) was 160.0 mL/min/kg; in [4] (hepatocytes) it was 122.6 mL/min/kg; in data set [5] (hepatocytes), 140.6 mL/min/kg; in [6] (hepatocytes), 167.1 mL/min/kg; in [7] (hepatocytes), 144.0 mL/min/kg.
Consider `CC(=O)NC(CSCCC(=O)N1CC(n2c(=O)n(-c3ccc(C(F)(F)F)cc3)c3cncnc32)C1)C(=O)O` (stereo not drawn) [M552], for which, in [1] (setting [13]), the “Relative abundance … Rat Bile 0-48 h” value turned out to be 0.56%; the “Relative abundance of MS peak areas, Rat Feces 0-48 h” value is given as 1.65%; the “Relative abundance of MS peak areas, Rat Urine 0-48 h” value amounted to 6.73%. Besides, in [1] (oral 12 mg/kg BPI-460372, average of male and female pooled samples), the “Relative abundance of MS peak areas, Rat Plasma 0-24 h” value was determined as 0.015%.
For the compound `C[C@]12CC[C@H]3[C@@H](CCC4=CC(=O)CC[C@@]43C)[C@@H]1CC[C@@H]2O` [Testosterone, testosterone], the half-life at 1 µM came out at 14.9 min in data set [2] (ICR, mouse); 13.9 min in data set [2] (SD, rat); 14.1 min in data set [2] (beagle, dog); 13.3 min in [2] (human); 11.5 min in data set [2] (monkey). In addition, the “CLint, in virto” value in [3] (dog hepatocytes, 1 µM) is on record as 49.1 µL·min^-1·Million cells^-1; in [4] (human hepatocytes, 1 µM), 52.2 µL·min^-1·Million cells^-1; in [6] (mouse hepatocytes, 1 µM), 46.6 µL·min^-1·Million cells^-1. In addition, the CLH turned out to be 28.3 mL/min/kg in [3] (dog hepatocytes, Fub set as 1); 18.7 mL/min/kg in data set [4] (human hepatocytes, Fub set as 1); 36.6 mL/min/kg in data set [5] (monkey hepatocytes, Fub set as 1); 77.4 mL/min/kg in [6] (mouse hepatocytes, Fub set as 1); 44.6 mL/min/kg in data set [7] (rat hepatocytes, Fub set as 1). In addition, the “CLint, in vivo” value in data set [3] (dog hepatocytes, scaled to whole liver) is 337.8 mL/min/kg; in data set [4] (human hepatocytes, scaled to whole liver), 188.7 mL/min/kg; in data set [5] (monkey hepatocytes, scaled to whole liver) it was 217.3 mL/min/kg; in data set [6] (mouse hepatocytes, scaled to whole liver) it was 554.1 mL/min/kg; in data set [7] (rat hepatocytes, scaled to whole liver), 233.5 mL/min/kg.
`NC(CCC(=O)NC(CSCC(F)C(=O)N1CC(n2c(=O)n(-c3ccc(C(F)(F)F)cc3)c3nccnc32)C1)C(=O)NCC(=O)O)C(=O)O` (stereo not drawn) [M714]: the “UV (314 nm) Peak Areas Relative Abundance” value in data set [8] is 3.01%; in [9], 22.65%; in [10], 18.4%; in [11], 24.76%; in [12], 3.01%. The “Relative abundance … Rat Bile 0-48 h” value in [1] (setting [13]) came to 3.27%.

For the origin of these results see PMC12376128, “In vitro and In Vivo Drug Metabolism Analysis of BPI-460372 - A Covalent TEAD1/3/4 Inhibitor” (Current Drug Metabolism, 2025).
